Marks after values point to notes of the source that are not given here.
Assays:
[1] = system: mammalian DNA polymerase alpha; settings: cited from earlier work
[2] = system: cellular DNA polymerase beta; settings: cited from earlier work
[3] = system: viral reverse transcriptase; settings: cited from earlier work
[4] = system: cellular DNA polymerase gamma; settings: cited from earlier work
Sindbis Virus = assay: Antiviral activity against Sindbis Virus; format: cell-based; settings: Vero cell cultures, read-out: Minimal Inhibitory Concentration (required to reduce virus-induced cytopathogenicity by 50%)
Description: (§1) The antiviral activity of the dideoxynucleosides of the present invention against a variety of viruses were compared. The results, shown in Table 3, indicate that the compositions of the present invention are selectively effective against HIV virus.
(§2) ^1 Required to reduce virusinduced cytopathogenicity by 50%.
(§3) ^4 Antiviral activity measured in Vero cell cultures.

[5] = system: HIV (HTLV-III/LAV), ATH8 cells; assay: Inhibition of cytopathic effect of HIV (HTLV-III/LAV) against ATH8 cells; format: cell-based, human immunodeficiency virus (HIV)
[6] = system: PBM (peripheral blood mononuclear cells) stimulated with pokeweed mitogen; assay: Immune reactivity of normal lymphocytes: PBM + PWM; format: cell-based; settings: 72 hours
[7] = system: Vesicular Stomatitis Virus; assay: microbe, parasite or virus in culture; format: cell-based; settings: HeLa, read-out: Minimal Inhibitory Concentration (required to reduce virus-induced cytopathogenicity by 50%)
HTLV-III = assay: Antiviral activity against HTLV-III; format: cell-based, human immunodeficiency virus (HIV); settings: for IC50: Human immunodeficiency virus 1, ATH-8, T4+ human T cell (ATH8) cultures, read-out: Minimal Inhibitory Concentration (required to reduce virus-induced cytopathogenicity by 50%); for activity against HIV: Table 3 note
Description: as §1, §2
^5 Antiviral activity measured in T4+ human T cell (ATH8) cultures.

[8] = dog, in vivo
Coxsackie Virus B4 = assay: Antiviral activity against Coxsackie Virus B4; format: cell-based; settings: Enterovirus B, Hela cell cultures, read-out: Minimal Inhibitory Concentration (required to reduce virus-induced cytopathogenicity by 50%)
Semliki Forest Virus = assay: Antiviral activity against Semliki Forest Virus; format: cell-based; settings: Vero cell cultures, read-out: Minimal Inhibitory Concentration (required to reduce virus-induced cytopathogenicity by 50%)
Description: as §1, §2, §3

Vaccinia = assay: microbe, parasite or virus in culture; format: cell-based; settings: Orthopoxvirus vaccinia, in Oryctolagus cuniculus, read-out: Minimal Inhibitory Concentration (required to reduce virus-induced cytopathogenicity by 50%)
[9] = system: normal helper/inducer TM3 cells; assay: Immune reactivity of normal lymphocytes: tetanus toxoid-driven activation of clone TM3; format: cell-based; settings: 72 hours
Description: There was tested the effects of the various 2',3'-dideoxynucleosides on the antigen-specific and lectin-induced reactivity of normal lymphocytes in vitro (Table 2). There was used a normal clone (TM3)of tetanus-toxoid specific helper/inducer T-cells to monitor the effects of the compounds on antigen-driven activation and normal circulating lymphocytes to monitor effects on pokeweed mitogen and phytohaemagglutinin-driven activation. Concentrations of these compounds, including those that were 10- to 20-fold higher than those necessary to block the in vitro infectivity and cytopathic effect of HIV (HTLV-III/LAV) left the in vitro immune reactivity of normal lymphocytes basically intact.
^2 5 × 10^4 normal helper/inducer TM3 cells were stimulated
with tetanus toxoid (0.6 limiting flocculation units/ml) plus 10^5
irradiated (4,000 rad) autologous peripheral blood mononuclear cells (PBM
as a source of accessory cells and cultured for 72 hours in the presence
or absence of the 2',3dideoxynucleoside. After exposure to 0.5 uCi^3
Hthymidine or 1 uCi ^3 Huidine for the final 5 hours, cells were
harvested onto glass fibers and the incorporated radioactivity was
counted. Data are expressed as the arithmetic mean counts per minute
(×10^3) ± 1 standard deviation triplicate determinations.

HSV-1 [10] = assay: Antiviral activity against HSV-1 (first line); format: cell-based; settings: Human alphaherpesvirus 1; primary rabbit kidney cell cultures; first HSV-1 line; read-out: Minimal Inhibitory Concentration (required to reduce virus-induced cytopathogenicity by 50%)
[11] = system: PBM (peripheral blood mononuclear cells) stimulated with phytohaemagglutinin; assay: Immune reactivity of normal lymphocytes: PBM + PHA; format: cell-based; settings: 72 hours
Reovirus-1 = assay: Antiviral activity against Reovirus-1; format: cell-based; settings: Vero cell cultures; read-out: Minimal Inhibitory Concentration (required to reduce virus-induced cytopathogenicity by 50%)
Polio Virus-1 = assay: organism not typed; format: cell-based; settings: HeLa, read-out: Minimal Inhibitory Concentration (required to reduce virus-induced cytopathogenicity by 50%)
Parainfluenza Virus-3 = assay: Antiviral activity against Parainfluenza Virus-3; format: cell-based; settings: Vero; read-out: Minimal Inhibitory Concentration (required to reduce virus-induced cytopathogenicity by 50%)
HSV-1 [12] = assay: Antiviral activity against HSV-1 (second line); format: cell-based; settings: Human alphaherpesvirus 1; primary rabbit kidney cell cultures; second HSV-1 line; read-out: Minimal Inhibitory Concentration (required to reduce virus-induced cytopathogenicity by 50%)
DNA and RNA viruses = assay: Antiviral activity against a variety of viruses (Table 3 overall); format: cell-based; settings: Table 3 note
Description: as §1, §2

[13] = system: HIV (HTLV-III/LAV) p24 gag protein, H9 cells; assay: Inhibition of infectivity and replication of HIV (p24 gag protein expression) in H9 cells; format: cell-based, human immunodeficiency virus (HIV)
[14] = 10 uM, 3H-thymidine incorporation, mean ± 1 SD, triplicate
[15] = 100 uM, 3H-thymidine incorporation, mean ± 1 SD, triplicate
[16] = 1 uM, 3H-uridine incorporation, mean ± 1 SD, triplicate
[17] = 10 uM, 3H-uridine incorporation, mean ± 1 SD, triplicate
[18] = 200 uM, 3H-uridine incorporation
[19] = 2,000 uM, 3H-uridine incorporation, mean ± 1 SD, triplicate

Row | SMILES | IC50 (Sindbis Virus) [µM] | activation of PBM + PWM, mean counts per minute [6, 14] | activation of PBM + PWM, mean counts per minute [6, 15] | IC50 [7] [µM] | IC50 (HTLV-III) [µM] | IC50 (Coxsackie Virus B4) [µM] | IC50 (Semliki Forest Virus) [µM] | IC50 (Vaccinia) [µM] | activation of clone TM3, mean counts per minute [9, 14] | activation of clone TM3, mean counts per minute [9, 15] | IC50 (HSV-1 [10]) [µM] | activation of PBM + PHA, mean counts per minute [11, 14] | activation of PBM + PHA, mean counts per minute [11, 15] | IC50 (Reovirus-1) [µM] | IC50 (Polio Virus-1) [µM] | IC50 (Parainfluenza Virus-3) [µM] | IC50 (HSV-1 [12]) [µM] | other results
1 | Nc1ncnc2c1ncn2[C@H]1CC[C@@H](COP(=O)(O)OP(=O)(O)OP(=O)(O)O)O1 | – | – | – | – | – | – | – | – | – | – | – | – | – | – | – | – | – | inhibition of mammalian DNA polymerase alpha [1]: but not mammalian DNA polymerase alpha; inhibition of cellular DNA polymerase beta [2]: can inhibit; inhibition of viral reverse transcriptase [3]: can inhibit; inhibition of cellular DNA polymerase gamma [4]: can inhibit
2 | Nc1nc2c(ncn2[C@H]2CC[C@@H](COP(=O)(O)OP(=O)(O)OP(=O)(O)O)O2)c(=O)[nH]1 | – | – | – | – | – | – | – | – | – | – | – | – | – | – | – | – | – | inhibition of mammalian DNA polymerase alpha [1]: but not mammalian DNA polymerase alpha; inhibition of cellular DNA polymerase beta [2]: can inhibit; inhibition of viral reverse transcriptase [3]: can inhibit; inhibition of cellular DNA polymerase gamma [4]: can inhibit
3 | Nc1ncnc2c1ncn2[C@H]1CC[C@@H](CO)O1 [2',3'-dideoxyadenosine] | > 2000 | 63 ± 5 counts per minute (×10^3) | 57 ± 3 counts per minute (×10^3) | > 2000 | 5 | > 2000 | > 2000 | > 2000 | 86 ± 8 counts per minute (×10^3) | 67 ± 2 counts per minute (×10^3) | > 2000 | 289 ± 18 counts per minute (×10^3) | 314 ± 37 counts per minute (×10^3) | > 2000 | > 2000 | > 2000 | > 2000 | anti-retroviral activity against HIV [5]: have anti-retroviral activity against HIV; activity against HIV (HTLV-III): active against HIV; oral bioavailability ([8]; pH 7): 41.6%; conversion of orally administered ddA to ddI ([8]; po): converted almost entirely to 2',3'-dideoxyinosine (ddI); activity against the broad spectrum of DNA and RNA viruses (DNA and RNA viruses): not active
4 | Nc1ccn([C@H]2CC[C@@H](CO)O2)c(=O)n1 [2',3'-dideoxycytidine] | > 2000 | – | – | > 2000 | 0.3 | > 2000 | > 2000 | > 2000 | – | – | > 2000 | – | – | > 2000 | > 2000 | > 2000 | > 2000 | activation of PBM + PWM, mean counts per minute [6, 16]: 23 ± 3 counts per minute (×10^3); activation of PBM + PWM, mean counts per minute [6, 17]: 15 ± 3 counts per minute (×10^3); activity against HIV (HTLV-III): active against HIV; activation of clone TM3, mean counts per minute [9, 16]: 13 ± 1 counts per minute (×10^3); activation of clone TM3, mean counts per minute [9, 17]: 8 ± 1 counts per minute (×10^3); activation of PBM + PHA, mean counts per minute [11, 16]: 101 ± 1 counts per minute (×10^3); activation of PBM + PHA, mean counts per minute [11, 17]: 86 ± 3 counts per minute (×10^3); activity against the broad spectrum of DNA and RNA viruses (DNA and RNA viruses): not active
5 | Nc1nc2c(ncn2[C@H]2CC[C@@H](CO)O2)c(=O)[nH]1 [2',3'-dideoxyguanosine] | – | 73 ± 8 counts per minute (×10^3) | 62 ± 5 counts per minute (×10^3) | – | – | – | – | – | 66 ± 5 counts per minute (×10^3) | 77 ± 1 counts per minute (×10^3) | – | 350 ± 4 counts per minute (×10^3) | 469 ± 9 counts per minute (×10^3) | – | – | – | – | –
6 | OC[C@@H]1CC[C@H](n2cnc3c(O)ncnc32)O1 [2',3'-dideoxyinosine] | – | 61 ± 1 counts per minute (×10^3) | 62 ± 5 counts per minute (×10^3) | – | – | – | – | – | 62 ± 4 counts per minute (×10^3) | 81 ± 4 counts per minute (×10^3) | – | 298 ± 20 counts per minute (×10^3) | 355 ± 37 counts per minute (×10^3) | – | – | – | – | anti-retroviral activity against HIV [5]: have anti-retroviral activity against HIV
7 | Cc1cn([C@H]2CC[C@@H](CO)O2)c(=O)[nH]c1=O [2',3'-dideoxythymidine] | > 2000 | – | – | > 2000 | 200 | > 2000 | > 2000 | > 2000 | – | – | > 2000 | – | – | > 2000 | > 2000 | > 2000 | > 2000 | concentration required to exert a protective effect ([5]; ATH8 cells): relatively high concentrations; capacity to nullify the cytopathic effect of the virus ([5]; day 10 of culture, ATH8 cells): lost on day 10 of the culture; activation of PBM + PWM, mean counts per minute [6, 18]: 31 counts per minute (×10^3); activation of PBM + PWM, mean counts per minute [6, 19]: 31 counts per minute (×10^3); activation of clone TM3, mean counts per minute [9, 18]: 9 counts per minute (×10^3); activation of clone TM3, mean counts per minute [9, 19]: 9 counts per minute (×10^3); concentration required to mediate an anti-viral effect (p24 gag expression) [13]: relatively higher concentrations; resumption of viral replication ([13]; day 10 of culture): allowed a resumption of viral replication by day 10 of culture; activation of PBM + PHA, mean counts per minute [11, 18]: 86 counts per minute (×10^3); activation of PBM + PHA, mean counts per minute [11, 19]: 77 counts per minute (×10^3)
8 | O=c1ccn([C@H]2CC[C@@H](CO)O2)c(=O)[nH]1 [Dideoxyuridine] | > 2000 | – | – | > 2000 | > 100 | > 2000 | > 2000 | > 2000 | – | – | > 2000 | – | – | > 2000 | > 2000 | > 2000 | > 2000 | –

Source: US5616566A, “Method of inhibiting HIV replication with 2',3'-dideoxyadenosine” (The United States of America as represented by the …, priority 1993, dated 1997)
